Here are results for 6 molecules from patent publication US10889805B2, “Intestinal epithelioid cells” (National Institutes of Biomedical Innovation, Health and …, priority 2015, dated 2021).

The test system of data set [1] is HiPS-ELC-TFs. The data set can be described thus: TEER of HiPS-ELC-TFs (tight junction function). It is filed as cell-based, human. The settings on record: under action of C10 (tight junction opener); without C10 about 430; FIG. 18A. An excerpt: The tight junction function was confirmed by measuring TEER.
In data set [2] the test system is CYP3A4. An excerpt:
(§1) As comparative cells, Caco-2 cells and LS180 cells were similarly investigated.

Data set [3] relates to ANPEP. The data set can be described thus: ANPEP expression by quantitative real-time RT-PCR in cells differentiating from human iPS cells to enterocyte-like cells. The format is cell-based. The settings on record: compound added with BIO and DAPT, 5 days culture; versus control without the compounds; FIG. 2B. Here is the method:
(§2) The definitive endoderm cells generated from the human iPS cell line (Tic) by the method described in Example 1 above were further cultured for 15 days using the medium 3. During a period from day 4 to day 19 after the initiation of differentiation induction, BIO (5 μM) and DAPT (10 μM) were added to the culture system. Simultaneously with the addition of the BIO and the DAPT, the cells were further cultured for 5 days using the medium 3 supplemented with any one of phorbol-myristate-acetate (PMA), transforming growth factor β1 (TGEβ1), Wortmannin, Noggin, SB431542, Follistatin, EGF, R-spondin1, Pentagastrin, or Wnt3a (FIG. 2A and FIG. 3A).
(§3) With regard to the measurement of the enterocyte markers ANPEP and VILLIN, each of the enterocyte markers was measured by a quantitative real-time RT-PCR method using SYBR Green gene expression assays (APPLIED BIOSYSTEMS). […] Thus, high expressions of ANPEP and VILLIN were found when the cells were cultured in the system containing SB431542, EGF, or Wnt3a.
The quantitative real-time RT-PCR was performed by the following method. With the use of ISOGEN (NIPPON GENE), total RNA was collected from the enterocyte-like cells obtained by differentiation induction from the human iPS cells. Each total RNA was treated with RNase-free DNaseI (NEW ENGLAND BIOLABS), and then subjected to a reverse transcription reaction using […] VILO cDNA Synthesis Kit (INVITROGEN) to synthesize complementary DNA (cDNA). As a positive control, the total RNA (CLONTECH, BIOCHAIN four lots in total) of a human adult small intestine (human adult intestine: hereinafter sometimes referred to as “AI”) tissue to be used was similarly subjected to cDNA synthesis. A quantitative real-time RT-PCR method using SYBR Green gene expression assays (APPLIED BIOSYSTEMS) was performed, and quantification was performed with STEPONEPLUS real-time PCR System (APPLIED BIOSYSTEMS).
On the technique in general: In qPCR the cycle at which signal appears reflects the starting amount.

Data set [4] has as its system VILLIN. The data set can be described thus: VILLIN expression by quantitative real-time RT-PCR in cells differentiating from human iPS cells to enterocyte-like cells. The format is cell-based. The settings on record: compound added with BIO and DAPT, 5 days culture; versus control without the compounds; FIG. 3B. Here is the method: as §2, §3
The quantitative real-time RT-PCR was performed by the following method. […] A quantitative real-time RT-PCR method using SYBR Green gene expression assays (APPLIED BIOSYSTEMS) was performed, and quantification was performed with STEPONEPLUS real-time PCR System (APPLIED BIOSYSTEMS).

For data set [5], the system named is CYP3A4 protein.
In data set [6] the test system is CYP3A4 gene.
The test system of data set [7] is CYP3A4. Here is the method: As control cells, Caco-2 cells were similarly subjected to measurement. The expression level of the gene was measured by a real-time RT-PCR method.
as §1
The source holds these as a separate data set.

`CCCCCCCCCC(=O)O` [C10, capric acid]: in data set [1], the “TEER value of the HiPS-ELC-TFs” value is on record as ~0 Ω·cm^2.
For `CCC1(c2ccccc2)C(=O)NC(=O)NC1=O` [PB, phenobarbital], the CYP3A4 expression induction entry in data set [2] is “significant expression induction”.
As for `CCCCCCCCCCCCCC(=O)O[C@@H]1[C@@H](C)[C@@]2(O)[C@@H](C=C(CO)C[C@]3(O)C(=O)C(C)=C[C@@H]23)[C@@H]2C(C)(C)[C@]12OC(C)=O` [PMA, phorbol-myristate-acetate], the “expression of ANPEP” value in data set [3] was “high value”.
Take `NC(=O)c1ccc(-c2nc(-c3ccc4c(c3)OCO4)c(-c3ccccn3)[nH]2)cc1` [SB431542]: the “expression of ANPEP” value in data set [3] is “high value”. Further, the “expression of VILLIN” value in data set [4] is recorded as “high value”.
For the molecule `C=C1CC[C@H](O)C/C1=C/C=C1\CCC[C@]2(C)[C@@H]([C@H](C)CCCC(C)C)CC[C@@H]12` [VD3, vitamin D3], the “CYP3A4 protein expression level” value in data set [5] was “increased”. In data set [2], the CYP3A4 expression induction result was “significant expression induction”. Besides, the “CYP3A4 gene expression level increase as compared to DMSO action group” value in data set [6] was “about 100 fold”. Further, the CYP3A4 induction entry in data set [7] was “confirmed”.
epidermal growth factor [EGF]: the “expression of ANPEP” value in data set [3] was “high value”. In addition, the “expression of VILLIN” value in data set [4] is listed as “high value”.
